Results from patent US11708366B2, “Heteroaryl substituted spiropiperidinyl derivatives and pharmaceutical uses thereof” (Novartis AG, priority 2020, dated 2023).

How the values were obtained:
LTC4S [1] = molecular target: T1, LTC4S (Homo sapiens (Human), UniProt Q16873); assay: Human whole blood HTRF assay (LTC4 release after calcium ionophore A23187); format: cell-based; conditions: human whole blood diluted 1:3, 4 h incubation, calcium ionophore A23187 stimulation, LTC4 by HTRF; read-out: human whole blood HTRF IC50
LTC4S [2] = molecular target: T1, LTC4S; assay: Human LTC4S enzymatic assay (HTRF detection of LTC4-Me); format: biochemical; conditions: 0.75 nM enzyme, 400 μM GSH, 5 μM LTA4-Me, 15 min pre-incubation; read-out: human LTC4S IC50 (enzymatic assay)
Procedure: A. Human LTC4S Enzymatic Assay:
LTC4 synthase catalyzes the conversion of Leukotriene A4 (LTA4) to Leukotriene C4 (LTC4) in the presence of reduced glutathione (GSH) as a co-substrate. For compound testing, compounds are delivered as 10 mM stock solutions in 90% DMSO in matrix tubes. From this, a 1:3 dilution dose response series is prepared with a starting concentration of 30 μM to 0.1 nM. For the enzymatic assay 97.5 nL of compound/DMSO solution is transferred to each well and 5 μL enzyme solution (assay buffer: 50 mM bis-tris propane pH 7.3, 250 mM NaCl, 10 mM MgCl2, 0.001% MGN3) is added to the wells. […] The enzyme compound mixture is incubated at room temperature for 15 minutes prior to the addition of 5 μL substrate solution. […] A final substrate concentration of 400 μM GSH and 5 μM LTA4-Me is chosen.
The LTA4-Me is obtained commercially in 2% triethylamine/hexane solvent. As this solvent is incompatible with the HTRF assay it has to be exchanged with DMSO according to following procedure: add 50 μL of 100% DMSO to 50 μL LTA4-Me (3 mM) in a 2 mL Eppendorf tube and mix gently by inverting the tube. The triethylamine/hexane is evaporated under a constant argon flux at room temperature. The DMSO-LTA4-Me (3 mM) is aliquoted and stored at −20° C. for not longer than 4 weeks, as it is not stable in DMSO due to its oxidizing properties.
Upon addition of the substrate, the plate is immediately placed on a shaker for 5 min at room temperature. Immediately after the 5 min incubation 5 μL of H2O2 solution is added to all wells to stop the reaction. The plate contents are mixed before the addition of detection reagents. […] For the detection of the product of the enzymatic reaction LTC4-Me, the Cisbio LTC4-HTRF kit is used as the assay is compatible with the detection of LTC4-Me. 5 μL of diluted LTC4-d2 conjugate (according to manufacturer's protocol) are added to all wells of the assay plate and the contents gently mixed and incubated for 5 minutes at room temperature. […] The percent inhibition for each point of an inhibition curve is calculated after data interpolation using the LTC4-Me standard curve, to convert the HTRF signal to the amount of LTC4-Me produced within the LTC4S catalyzed reaction on each plate. The data is analyzed using parametric curve fitting to determine IC50 values of LTC4S inhibitors.

Question: Which IC50 (LTC4S [1]) does the source give for `O=C1CCCC2(CCN(c3ncnc(N4CCCC4)n3)CC2)N1c1ccc(Cl)c(F)c1` [Example 38, 1-(4-chloro-3-fluorophenyl)-9-(4-(pyrrolidin-1-yl)-1,3,5-triazin-2-yl)-1,9-diazaspiro[5.5]undecan-2-one] here?
Answer: 86 nM

Question: What about the IC50 (LTC4S [2]) of the same molecule?
Answer: 8 nM

Question: Which results are given for `O=C1CCCC2(CCN(c3cccc(-c4ccc(F)cc4)n3)CC2)N1c1ccc(Cl)cc1` [Example 32, 1-(4-chlorophenyl)-9-(6-(4-fluorophenyl)pyridin-2-yl)-1,9-diazaspiro[5.5]undecan-2-one]?
Answer: IC50 (LTC4S [1]): 170 nM; IC50 (LTC4S [2]): 7 nM

Question: Which IC50 (LTC4S [1]) does the source give for `O=C1CCCC2(CCN(c3cc(-c4ccc(F)cc4)cc[n+]3[O-])CC2)N1c1ccc(Cl)c(F)c1` [Example 33, 2-(1-(4-chloro-3-fluorophenyl)-2-oxo-1,9-diazaspiro[5.5]undecan-9-yl)-4-(4-fluorophenyl)pyridine 1-oxide] here?
Answer: 56 nM

Question: And the IC50 (LTC4S [2])?
Answer: 24 nM
